Results on 4 compounds are retold here after ChEMBL document CHEMBL1151333, “A new indole derivative from the red alga Chondria atropurpurea. Isolation, structure determination, and anthelmintic activity” (J Nat Prod, 1998).

This assay has as its system Nippostrongylus brasiliensis. The assay can be described thus: Anthelmintic activity against Nippostrongylus brasiliensis L4 parasitant on day 5 by double serial dilution model. The format is functional, organism-based. As to conditions: 120 h.

In the case of `NC(=O)/C=C/c1c[nH]c2ccccc12`, the EC50 was 2370 µM.

The compound `COc1cccc2c(/C=C/C(=O)N/C=C/c3cn(C)c4ccccc34)cn(C)c12` showed an EC50 of 300 µM.

`O=C(/C=C/c1c[nH]c2ccccc12)N/C=C/c1c[nH]c2ccccc12` [CHONDRIAMIDE A]: the EC50 came out at 260 µM.

As to `O=C(/C=C/c1c[nH]c2ccccc12)N/C=C\c1c[nH]c2ccccc12` [CHONDRIAMIDE C], the concentration giving a half-maximal response (EC50) amounted to 90 µM.

A word on the EC50: it is the concentration at which the effect is half-maximal. Lower therefore signals higher potency in that assay.
